Mutagenic call data for nine compounds are collected here from PubChem BioAssay AID1259407 (Chemical Carcinogenesis Research Information System (CCRIS), 2018).

Activity calls are given as the source filed them. The rule behind the calls is not given here.

The series concerns CCRIS mutagenicity, Ames/micronucleus/aberration tests. The series is described as follows: CCRIS mutagenicity studies.
Setting [1] is: Test System: AMES SALMONELLA TYPHIMURIUM, Strain/Indicator: TA98, Metabolic Activation: NONE, Method: STANDARD PLATE.
Where [2] appears, read: Test System: AMES SALMONELLA TYPHIMURIUM, Strain/Indicator: TA100, Metabolic Activation: NONE, Method: STANDARD PLATE.
The mark [3] stands for this setting: Test System: AMES SALMONELLA TYPHIMURIUM, Strain/Indicator: TA1537, Metabolic Activation: NONE, Method: STANDARD PLATE.
Setting [4] is: Test System: AMES SALMONELLA TYPHIMURIUM, Strain/Indicator: TA98, Metabolic Activation: NONE, Method: PREINCUBATION
Where [5] appears, read: Test System: AMES SALMONELLA TYPHIMURIUM, Strain/Indicator: TA100, Metabolic Activation: NONE, Method: PREINCUBATION
The mark [6] stands for this setting: Test System: AMES SALMONELLA TYPHIMURIUM, Strain/Indicator: TA1535, Metabolic Activation: NONE, Method: PREINCUBATION
[7] abbreviates: Test System: AMES SALMONELLA TYPHIMURIUM, Strain/Indicator: TA1537, Metabolic Activation: NONE, Method: PREINCUBATION
Where [8] appears, read: Test System: AMES SALMONELLA TYPHIMURIUM, Strain/Indicator: TA98, Metabolic Activation: RAT, LIVER, S-9, AROCLOR 1254, Method: PREINCUBATION
[9] abbreviates: Test System: AMES SALMONELLA TYPHIMURIUM, Strain/Indicator: TA100, Metabolic Activation: RAT, LIVER, S-9, AROCLOR 1254, Method: PREINCUBATION

In the case of `CCOC(=O)C1(CCCCCCOCc2cccs2)CO1` (stereo not drawn), the mutagenic call reads like this: under setting [1], “active; positive”; (Test System: AMES SALMONELLA TYPHIMURIUM, Strain/Indicator: TA98, Metabolic Activation: S-9, Method: STANDARD PLATE) “active; positive”; under setting [2], “inactive; negative”; (Test System: AMES SALMONELLA TYPHIMURIUM, Strain/Indicator: TA100, Metabolic Activation: S-9, Method: STANDARD PLATE) “inactive; negative”; (Test System: AMES SALMONELLA TYPHIMURIUM, Strain/Indicator: TA102, Metabolic Activation: NONE, Method: STANDARD PLATE) “inactive; negative”; (Test System: AMES SALMONELLA TYPHIMURIUM, Strain/Indicator: TA102, Metabolic Activation: S-9, Method: STANDARD PLATE) “inactive; negative”. Moreover, the mutagenic call (Test System: AMES SALMONELLA TYPHIMURIUM, Strain/Indicator: TA1535, Metabolic Activation: NONE, Method: STANDARD PLATE) was “inactive; negative”; the mutagenic call (Test System: AMES SALMONELLA TYPHIMURIUM, Strain/Indicator: TA1535, Metabolic Activation: S-9, Method: STANDARD PLATE) is “inactive; negative”; the mutagenic call under setting [3] is “inactive; negative”; the mutagenic call (Test System: AMES SALMONELLA TYPHIMURIUM, Strain/Indicator: TA1537, Metabolic Activation: S-9, Method: STANDARD PLATE) is “inactive; negative”.

With `CNc1ccc(Nc2c3ccccc3nc3ccccc23)cc1`, under setting [3], the mutagenic call is “active; positive”.

Regarding `Nc1cc(S(=O)(=O)O)cc2cc(S(=O)(=O)O)cc(O)c12`, the mutagenic call by setting is: under setting [4], “inactive; negative”; (Test System: AMES SALMONELLA TYPHIMURIUM, Strain/Indicator: TA98, Metabolic Activation: RAT LIVER S-9, PHENOBARBITAL AND BETA-NAPHTHOFLAVONE, Method: PREINCUBATION) “inactive; negative”; under setting [5], “inactive; negative”; (Test System: AMES SALMONELLA TYPHIMURIUM, Strain/Indicator: TA100, Metabolic Activation: RAT LIVER S-9, PHENOBARBITAL AND BETA-NAPHTHOFLAVONE, Method: PREINCUBATION) “inactive; negative”; under setting [6], “inactive; negative”; (Test System: AMES SALMONELLA TYPHIMURIUM, Strain/Indicator: TA1535, Metabolic Activation: RAT LIVER S-9, PHENOBARBITAL AND BETA-NAPHTHOFLAVONE, Method: PREINCUBATION) “inactive; negative”. Moreover, the mutagenic call under setting [7] was “inactive; negative”; the mutagenic call (Test System: AMES SALMONELLA TYPHIMURIUM, Strain/Indicator: TA1537, Metabolic Activation: RAT LIVER S-9, PHENOBARBITAL AND BETA-NAPHTHOFLAVONE, Method: PREINCUBATION) is “inactive; negative”; the mutagenic call (Test System: AMES SALMONELLA TYPHIMURIUM, Strain/Indicator: TA1538, Metabolic Activation: NONE, Method: PREINCUBATION) is “inactive; negative”; the mutagenic call (Test System: AMES SALMONELLA TYPHIMURIUM, Strain/Indicator: TA1538, Metabolic Activation: RAT LIVER S-9, PHENOBARBITAL AND BETA-NAPHTHOFLAVONE, Method: PREINCUBATION) was “inactive; negative”; the mutagenic call (Test System: E.COLI, Strain/Indicator: WP2UVRA, Metabolic Activation: NONE, Method: PREINCUBATION) was “inactive; negative”; the mutagenic call (Test System: E.COLI, Strain/Indicator: WP2UVRA, Metabolic Activation: RAT LIVER S-9, PHENOBARBITAL AND BETA-NAPHTHOFLAVONE, Method: PREINCUBATION) is “inactive; negative”.

For `CCN(CCC#N)c1ccc(N=Nc2c(Cl)cc([N+](=O)[O-])cc2Cl)cc1`, the mutagenic call runs as follows: under setting [1], “active; positive”; (Test System: AMES SALMONELLA TYPHIMURIUM, Strain/Indicator: TA98, Metabolic Activation: RAT, LIVER, S-9, AROCLOR 1254, Method: STANDARD PLATE) “active; positive”; (Test System: AMES SALMONELLA TYPHIMURIUM, Strain/Indicator: YG1041, Metabolic Activation: NONE, Method: STANDARD PLATE) “active; positive”; (Test System: AMES SALMONELLA TYPHIMURIUM, Strain/Indicator: YG1041, Metabolic Activation: RAT, LIVER, S-9, AROCLOR 1254, Method: STANDARD PLATE) “active; positive”.

As to `Cc1cc(O)c2c(c1O)C(=O)C13C(=C2O)C(=O)C2C(O)C1C1C(O)C3C(=O)C3=C(O)c4c(O)cc(C)c(O)c4C(=O)C321` (stereo not drawn), the mutagenic call under setting [5] was “inactive; negative” and the mutagenic call (Test System: AMES SALMONELLA TYPHIMURIUM, Strain/Indicator: TA100, Metabolic Activation: RAT, LIVER, S-9, PHENOBARBITAL, Method: PREINCUBATION) was “inactive; negative”.

`COc1ccc([Se]c2ccc(OC)cc2)cc1`: the mutagenic call by setting is: (Test System: AMES SALMONELLA TYPHIMURIUM, Strain/Indicator: TA97A, Metabolic Activation: NONE, Method: STANDARD PLATE) “inactive; negative”; under setting [2], “active; positive”.

On to `Clc1ccccc1Cl`, for which the mutagenic call (End Point: IN VITRO CHROMOSOMAL ABERRATIONS, Test System: CHO-LB CELLS, Metabolic Activation: NONE) was “inactive; negative”; the mutagenic call (End Point: IN VITRO CHROMOSOMAL ABERRATIONS, Test System: CHO-LB CELLS, Metabolic Activation: RAT, LIVER, S-9, AROCLOR 1254) was “inactive; negative”; the mutagenic call (Test System: AMES SALMONELLA TYPHIMURIUM, Strain/Indicator: TA98, Metabolic Activation: HAMSTER, LIVER, S-9, AROCLOR 1254, Method: PREINCUBATION) was “inactive; negative”; the mutagenic call under setting [4] was “inactive; negative”; the mutagenic call under setting [1] was “inactive; negative”; the mutagenic call under setting [8] was “inactive; negative”. Besides, the mutagenic call (Test System: AMES SALMONELLA TYPHIMURIUM, Strain/Indicator: TA98, Metabolic Activation: RAT, LIVER, S-9, AROCLOR, Method: STANDARD PLATE) was “inactive; negative”; the mutagenic call (Test System: AMES SALMONELLA TYPHIMURIUM, Strain/Indicator: TA100, Metabolic Activation: HAMSTER, LIVER, S-9, AROCLOR 1254, Method: PREINCUBATION) was “inactive; negative”; the mutagenic call under setting [5] is “inactive; negative”; the mutagenic call under setting [2] is “inactive; negative”; the mutagenic call under setting [9] is “inactive; negative”; the mutagenic call (Test System: AMES SALMONELLA TYPHIMURIUM, Strain/Indicator: TA100, Metabolic Activation: RAT, LIVER, S-9, AROCLOR, Method: STANDARD PLATE) is “inactive; negative”. Besides, the mutagenic call by setting is: (Test System: AMES SALMONELLA TYPHIMURIUM, Strain/Indicator: TA1535, Metabolic Activation: HAMSTER, LIVER, S-9, AROCLOR 1254, Method: PREINCUBATION) “inactive; negative”; under setting [6], “inactive; negative”; (Test System: AMES SALMONELLA TYPHIMURIUM, Strain/Indicator: TA1535, Metabolic Activation: RAT, LIVER, S-9, AROCLOR 1254, Method: PREINCUBATION) “inactive; negative”; (Test System: AMES SALMONELLA TYPHIMURIUM, Strain/Indicator: TA1537, Metabolic Activation: HAMSTER, LIVER, S-9, AROCLOR 1254, Method: PREINCUBATION) “inactive; negative”; under setting [7], “inactive; negative”; (Test System: AMES SALMONELLA TYPHIMURIUM, Strain/Indicator: TA1537, Metabolic Activation: RAT, LIVER, S-9, AROCLOR 1254, Method: PREINCUBATION) “inactive; negative”. Also, the mutagenic call is “inactive; negative” (Test System: AMES SALMONELLA TYPHIMURIUM, Strain/Indicator: UTH8413, Metabolic Activation: NONE, Method: STANDARD PLATE); “inactive; negative” (Test System: AMES SALMONELLA TYPHIMURIUM, Strain/Indicator: UTH8413, Metabolic Activation: RAT, LIVER, S-9, AROCLOR, Method: STANDARD PLATE); “inactive; negative” (Test System: AMES SALMONELLA TYPHIMURIUM, Strain/Indicator: UTH8414, Metabolic Activation: NONE, Method: STANDARD PLATE); “inactive; negative” (Test System: AMES SALMONELLA TYPHIMURIUM, Strain/Indicator: UTH8414, Metabolic Activation: RAT, LIVER, S-9, AROCLOR, Method: STANDARD PLATE).

As for `[Br][Pt-2]([Br])([Br])([Br])([Br])[Br]`, the mutagenic call by setting is: under setting [4], “inactive; negative”; under setting [8], “inactive; negative”; under setting [5], “inactive; negative”; under setting [9], “inactive; negative”.

With `Cc1ccc2cccc([N+](=O)[O-])c2c1`, the mutagenic call under setting [4] was “active; positive”.
